# Measured values published in patent publication US4451448A, “1-Substituted tricyclic quinazolinones useful as tranquilizers” (Sandoz, Inc., priority 1982, dated 1984).
# Tested on: isolated calf brain benzodiazepine receptors
# Test: Flunitrazepam Receptor Binding Assay (FBA TEST No. 1), displacement of 3H-flunitrazepam
# Settings: compound at final concentration of 1×10^-6 M; calf caudate tissue; 1 µM
row,SMILES,percent specifically bound 3H-flunitrazepam compared to control
1,"C=CCN1CCn2c1nc1ccc(Cl)cc1c2=O [Example 1, 1-allyl-7-chloro-2,3-dihydro-imidazo[2,1-b]quinazolin-5(1H)-one]",13 % of control
2,"O=c1c2cc(Cl)ccc2nc2n1CCN2C1CCCC1 [Example 2, 7-chloro-1-cyclopentyl-2,3-dihydro-imidazo[2,1-b]quinazolin-5(1H)-one]",19 % of control
